Data: US20070219180A1, “Muscle Relaxtion Accelerator and Therapeutic Agent for Muscular Tissue Diseases Such as Muscle Relaxation Failure” (priority 2004, published 2007)
Where “and” joins values, the source holds several entries; their conditions need not be identical. Equal entries are not always repeated.

Columns and labels:
white rabbits [1] = test: Experiment 9: effect of the compound on blood pressure in rabbits; assay type: in vivo, rabbit; conditions: for Mean blood pressure relative to before administration (100%): before administration (defined as 100%)
Procedure: Effects of the compound on blood pressure were examined in the same way as described in Experiment 2. In this experiment, Control and Tests 6-9 were anesthetized with a single intravenous injection of 20 mg/kg methohexital sodium under artificial respiration (Type AR1Narishige Group) using endotracheal intubation. The 1,4-benzothiazepine derivative or pharmaceutically acceptable salt thereof was used as the compound in this experiment.
Five white rabbits (weight: 2.7-2.9 kg) were used in this experiment: a rabbit (weight: 2.8 kg, Control) that received control solution, a rabbit (weight: 2.7 kg, Test 6) that received the compound at 0.04 mg/kg/min, a rabbit (weight: 2.7 kg, Test 7) that received the compound at 0.04 mg/kg/min, a rabbit (weight: 2.9 kg, Test 8) that received the compound at 0.4 mg/kg/min, and a rabbit (weight: 2.8 kg, Test 9) that received the compound at 0.4 mg/kg/min.
(§1) Each rabbit was anesthetized with a single intravenous injection of 20 mg/kg methohexital sodium under artificial respiration (Type AR1 Narishige Group) using endotracheal intubation. Subsequently, α-chloralose was injected into the ear veins at 90 mg/kg/20 min. A DMSO solution of the compound was prepared by dissolving 100 mg of the compound in 1 ml of dimethylsulfoxide (DMSO), and stored at 4° C.
In this experiment, injection catheters for the compound for administration of drugs were inserted into the right external jugular veins of the rabbits and microchip catheters (SPC-320, Millar) for blood pressure measurement were inserted via the right common arteries. A 2-lead electrocardiogram was examined and blood pressure, cardiac rate, and electrocardiogram of the rabbits were monitored for 10 minutes. When the data stabilized, the electrocardiogram, systolic pressure and diastolic pressure of each rabbit were recorded on a personal computer via an A/D converter. The Control rabbit was administered 5% dextrose solution containing 0.1% DMSO as a control solution for 10 minutes at 0.1 ml/min. Test 6 and 7 rabbits were administered 5% dextrose containing the compound at 0.1 ml/min, and then the compound at an infusion rate of 0.04 mg/kg/min. Test 8 and 9 rabbits were administered 5% dextrose containing the compound at 0.1 ml/min, and then the compound at an infusion rate of 0.4 mg/kg/min.
Systolic pressure (mmHg) and diastolic pressure (mmHg) of the Control and Test rabbits were measured over 5 heart beats before administration of the solution, and 5 and 10 minutes after administration. The mean blood pressure (mmHg) was calculated from the systolic pressure (mmHg) and the diastolic pressure (mmHg), using the formula: mean blood pressure (mmHg)=[(systolic pressure+diastolic pressure)×½].

white rabbits [2] = test: Experiment 10: effect of the compound on cardiac rate and PQ interval on the electrocardiogram; assay type: in vivo, rabbit; conditions: for Cardiac rate: listed as the test compound; for Cardiac rate relative to before administration (100%) / PQ interval relative to before administration (100%): before administration (defined as 100%)
Procedure: In this experiment, the 1-hydrochloride of the compound, 4-[3-(4-benzylpiperidin-1-yl)propionyl]-7-methoxy-2,3,4,5-tetrahydro-1,4-benzothiazepine 1-hydrochloride (hereinafter called the compound) was used as the 1,4-benzothiazepine derivative or pharmaceutically acceptable salt thereof.
Five white rabbits (weight: 2.7-2.9 kg) were used in this experiment: a rabbit (weight 2.8 kg, Control 1) that was administered control solution, a rabbit (weight 2.7 kg, Test 10) that received the compound at 0.04 mg/kg/min, a rabbit (weight 2.7 kg, Test 11) that received the compound at 0.04 mg/kg/min, a rabbit (weight 2.9 kg, Test 12) that received the compound at 0.4 mg/kg/min, and a rabbit (weight 2.8 kg, Test 13) that received the compound at 0.4 mg/kg/min.
as §1
In this experiment, injection catheters for administration of the compound and other drugs were inserted into the right external jugular veins of the rabbits, and microchip catheters (SPC-320, Millar) for blood pressure measurement were inserted via the right common arteries. A 2-lead electrocardiogram was examined, and blood pressure, cardiac rate, and electrocardiogram of the rabbits were monitored for 10 minutes. When the data stabilized, the electrocardiogram, systolic pressure and diastolic pressure of each rabbit were recorded on a personal computer via an A/D converter. The Control rabbit was administered 5% dextrose solution containing 0.1% DMSO as a control solution for 10 minutes at 0.1 ml/min. Test 10 and 11 rabbits were administered 5% dextrose containing the compound at 0.1 ml/min, and then the compound at an infusion rate of 0.04 mg/kg/min. Test 12 and 13 were administered 5% dextrose containing the compound at 0.1 ml/min, and then the compound at an infusion rate of 0.4 mg/kg/min.
Cardiac rate and PQ interval in the Control and Test rabbits were measured before administration of the test solution, and 5 and 10 minutes after administration. The PQ interval, which is the time interval between the beginning of the P-wave and the beginning of next Q wave, reflects the conduction velocity of electrical stimulation from the atrium to the ventricle. The cardiac rates before administration of the test solution were defined as 100%, and data for the cardiac rate after administration of the compound are shown in Table 10.

myosin light chains = test: Experiment 5: amount of precipitate of myosin light chains; assay type: binding, swine; conditions: concentration of the compound 10^−3 mol
Procedure: In this experiment, the effects of the compound were studied on the amount of precipitate of myosin light chains, which is a component of the troponin test sample used in Experiment 4.
A sample buffer for polyacrylamide gel electrophoresis (SDS-PAGE) was added to each washed test precipitate, which was prepared in the manner described above, and mixed well to suspend the test precipitate. The resulting suspension was electrophoresed on a gel (PAG MINI “No. 1” 10/20) for about 1 hour at 40 mA. After electrophoresis, the suspension was silver-stained using “Daiichi” 2D-silver staining reagent (Daiichi Pure Chemicals Co., Ltd), and washed with distilled water and dried. The amount of precipitate in each silver-stained protein band obtained by gel electrophoresis was quantitated using a densitometer. […] The protein band from gel electrophoresis was stained using a reagent for mass spectrometry (silver staining reagent for mass spectrometry, Wako Pure Chemical Industries Ltd.), and a peptide fragment obtained from the protein that gave the band in gel electrophoresis was analyzed using high performance liquid chromatography (MAGIC2002, Michrom BioResources, Inc, USA).

[3] = infusion rate 0.04 mg/kg/min, after 5 minutes
[4] = infusion rate 0.04 mg/kg/min, after 10 minutes
[5] = infusion rate 0.04 mg/kg/min, before administration
[6] = infusion rate 0.4 mg/kg/min, after 5 minutes
[7] = infusion rate 0.4 mg/kg/min, after 10 minutes
[8] = infusion rate 0.4 mg/kg/min, before administration

For `COc1ccc2c(c1)CN(C(=O)CCN1CCC(Cc3ccccc3)CC1)CCS2` [the compound, 4-[3-(4-benzylpiperidine-1-yl)propionyl]-7-methoxy-2,3,4,5-tetrahydro-1,4-benzothiazepine], the Mean blood pressure (white rabbits [1]; [3]) was 79.5 mmHg and 82.0 mmHg, the Mean blood pressure (white rabbits [1]; [4]) was 85.9 mmHg and 93.4 mmHg and the Mean blood pressure (white rabbits [1]; [5]) was 85.6 mmHg and 87.7 mmHg. The “Mean blood pressure relative to before administration (100%)” value (white rabbits [1]; infusion rate 0.04 mg/kg/min) was “(100%)”, the Mean blood pressure (white rabbits [1]; [6]) was 35.7 mmHg and 64.5 mmHg and the Mean blood pressure (white rabbits [1]; [7]) was 41.7 mmHg and 46.3 mmHg. For the same molecule, the Mean blood pressure (white rabbits [1]; [8]) was 74.0 mmHg and 97.7 mmHg, the “Mean blood pressure relative to before administration (100%)” value (white rabbits [1]; infusion rate 0.4 mg/kg/min) was “(100%)” and the “Increase of PQ interval compared to before administration” value (white rabbits [2]; 0.4 mg/kg/min, 10 minutes after administration, Test 12 and Test 13 rabbits) was “approximately 50%”. The PQ interval (white rabbits [2]; [3]) was 73 milliseconds and 66 milliseconds, the Cardiac rate (white rabbits [2]; [3]) was 289 min⁻¹ and 283 min⁻¹ and the PQ interval (white rabbits [2]; [4]) was 74 milliseconds and 68 milliseconds. The Cardiac rate (white rabbits [2]; [4]) was 286 min⁻¹ and 281 min⁻¹, the PQ interval (white rabbits [2]; [5]) was 71 milliseconds and 64 milliseconds and the “Cardiac rate relative to before administration (100%)” value (white rabbits [2]; infusion rate 0.04 mg/kg/min) was “(100%)”. For the same molecule, the “PQ interval relative to before administration (100%)” value (white rabbits [2]; infusion rate 0.04 mg/kg/min) was “(100%)”, the Cardiac rate (white rabbits [2]; [5]) was 297 min⁻¹ and 286 min⁻¹ and the PQ interval (white rabbits [2]; [6]) was 92 milliseconds and 82 milliseconds. The Cardiac rate (white rabbits [2]; [6]) was 350 min⁻¹ and 311 min⁻¹, the PQ interval (white rabbits [2]; [7]) was 107 milliseconds and 103 milliseconds and the Cardiac rate (white rabbits [2]; [7]) was 157 min⁻¹ and 98 min⁻¹. The PQ interval (white rabbits [2]; [8]) was 69 milliseconds and 68 milliseconds, the “Cardiac rate relative to before administration (100%)” value (white rabbits [2]; infusion rate 0.4 mg/kg/min) was “(100%)” and the “PQ interval relative to before administration (100%)” value (white rabbits [2]; infusion rate 0.4 mg/kg/min) was “(100%)”. For the same molecule, the Cardiac rate (white rabbits [2]; [8]) was 372 min⁻¹ and 327 min⁻¹, the “The amount of precipitate of myosin light chains (ratio to Test 1 = 1.0)” value (myosin light chains; Test 3: Ca^2+ concentration 0 mol) was 1.5 and the “The amount of precipitate of myosin light chains (ratio to Test 1 = 1.0)” value (myosin light chains; Test 4: Ca^2+ concentration 10^−5 mol) was 1.4.
